Measurements as given in patent publication US6989385B2, “Pyrazole compounds useful as protein kinase inhibitors” (Vertex Pharmaceuticals Incorporated, priority 2000, dated 2006).

Target: T1, Aurora-2 (Homo sapiens, UniProt O14965)
T1 sequence (O14965 1-403): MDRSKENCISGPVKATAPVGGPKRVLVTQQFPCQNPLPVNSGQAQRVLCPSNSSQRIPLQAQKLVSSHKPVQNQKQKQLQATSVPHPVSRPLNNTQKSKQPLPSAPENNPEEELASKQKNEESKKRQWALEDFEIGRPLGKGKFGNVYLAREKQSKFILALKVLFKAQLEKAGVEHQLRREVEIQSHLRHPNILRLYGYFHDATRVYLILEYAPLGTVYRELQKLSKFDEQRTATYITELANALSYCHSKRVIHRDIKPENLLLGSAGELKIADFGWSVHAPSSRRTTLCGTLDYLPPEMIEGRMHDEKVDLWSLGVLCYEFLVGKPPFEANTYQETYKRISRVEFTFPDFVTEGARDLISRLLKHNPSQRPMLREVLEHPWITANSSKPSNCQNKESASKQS
Assay: Ki determination for the inhibition of Aurora-2 (coupled enzyme assay)
Format: biochemical
Conditions: 70 nM Aurora-2, 30° C.
Description: To an assay stock buffer solution containing 0.1 M HEPES 7.5, 10 mM MgCl2, 1 mM DTT, 25 mM NaCl, 2.5 mM phosphoenolpyruvate, […], 30 mg/ml pyruvate kinase, 10 mg/ml lactate dehydrogenase, 40 mM ATP, and 800 μM peptide (LRRASLG, American Peptide, Sunnyvale, Calif.) was added a DMSO solution of a compound of the present invention to a final concentration of 30 μM. The resulting mixture was incubated at 30° C. for 10 min. The reaction was initiated by the addition of 10 μL of Aurora-2 stock solution to give a final concentration of 70 nM in the assay. […] The Ki values were determined from the rate data as a function of inhibitor concentration.

Ki: 100 to 1000 nM
SMILES: Cc1cc(Nc2cc(C)[nH]n2)nc(C(C)(C)c2ccccc2)n1 [IIId-20]
